Laboratory results taken from patent US11007243B2, “Enzyme-assisted supercritical extraction of nigella sativa seeds” (priority 2016, dated 2021).
Read-outs that look alike come from different tables or passages of the source.

Legend:
rabbits = conditions: cited from earlier work
rats = conditions: cited from earlier work
[1] = Roghani et al. 2012; cited from earlier work
mice = conditions: cited from earlier work
[2] = system: Albino Wistar rats injected with Ibotenic acid; assay: Open field test in ibotenic acid (I.C.V.) model; format: in vivo; conditions: IBO i.c.v., oral treatment 30 days, FIG. 2b
Protocol: Ibotenic acid (IBO) is a non-selective glutamate receptor […] which can be used as a powerful neurotoxin to produce anxiety, stress, depression and dementia. It is injected intra cerebro-ventricularly as a brain lesioning agent specially to destroy the neuronal cells in hippocampal and cortical region responsible for fear, anxiety and depression, as well as learning and memory. […] The NMDA subtype of glutamate receptor is an important mediator of synaptic plasticity and plays a central role in the neurobiological mechanisms of emotionality including fear, anxiety and depression, as well as learning and memory (Barkus et al., European Journal of Pharmacology, 2010; 626(1), 49-56).
Ibotenic acid is administered to Albino Wistar rats at the dose of 5 μg/μL/intracerebroventricularly using Hamilton syringe at the rate of 0.1 μL/min. The animals were then treated continuously for 30 days with Black cumin extracts (BCE) orally at various dosages (thymoquinone content) and evaluated for its anxiolytic properties using elevated plus maze and modified open field apparatus. The various black cumin extracts (BCE) dosages evaluated in the study are outlined in Table-3.
The open field test is conventionally designed to assess the state of anxiety, locomotor and exploratory activity. […] Results were statistically analysed by one-way ANOVA followed by Tukey's multiple comparison test.

IMR-32 cell line = assay: SRB growth assay on IMR-32 neuronal cell line; format: cell-based; conditions: Homo sapiens, IMR-32, read-out: GI 50 (concentration causing 50% inhibition of cell growth)
U373-MG cell line = assay: SRB growth assay on U373 MG glial cell line; format: cell-based; conditions: Homo sapiens, read-out: GI 50 (concentration causing 50% inhibition of cell growth)

For `CC1=CC(=O)C(C(C)C)=CC1=O` [TQ, 2-isopropyl-5-methyl-1,4-benzoquinone], the LD50 (rabbits) is given as 2.4 g/kg, the LD50 (rats; intra-peritoneal injection) is given as 57.5 mg/kg and the LD50 (rats; oral ingestion) is given as 794.3 mg/kg. For the same molecule, the Memory improvement [1] was “memory improvement in a dose dependent manner”, the LD50 (mice; intra-peritoneal injection) was 104.7 mg/kg and the LD50 (mice; oral ingestion) was 870.9 mg/kg.
For `CC12CC3CC(C)(C1)CC(N)(C3)C2` [Memantine], the “Rearing behaviour (rearing frequency), open field” value [2] was “no significant difference between the BCE4 treated group, memantine group and the control group”.
Molecule `COc1cccc2c1C(=O)c1c(O)c3c(c(O)c1C2=O)C[C@@](O)(C(=O)CO)C[C@@H]3O[C@H]1C[C@H](N)[C@H](O)[C@H](C)O1` [Adriamycin] has a GI50 (IMR-32 cell line) of under 10 µg/mL and a GI50 (U373-MG cell line) of under 10 µg/mL.
